According to ChEMBL document CHEMBL1145568, “Opioids and efflux transporters. Part 3: P-glycoprotein substrate activity of 3-hydroxyl addition to meperidine analogs” (Bioorg Med Chem Lett, 2008):
Where a name gives a salt, the structure may show the parent alone.

Molecular target: P-gp (ABCB1) ATPase (Homo sapiens, UniProt P08183)
Test: Stimulation of Pgp ATPase activity at 200 uM by Pgp-Glo assay system relative to control
Details: read-out: Fold change

P-gp (ABCB1) ATPase, sequence (P08183 whole entry): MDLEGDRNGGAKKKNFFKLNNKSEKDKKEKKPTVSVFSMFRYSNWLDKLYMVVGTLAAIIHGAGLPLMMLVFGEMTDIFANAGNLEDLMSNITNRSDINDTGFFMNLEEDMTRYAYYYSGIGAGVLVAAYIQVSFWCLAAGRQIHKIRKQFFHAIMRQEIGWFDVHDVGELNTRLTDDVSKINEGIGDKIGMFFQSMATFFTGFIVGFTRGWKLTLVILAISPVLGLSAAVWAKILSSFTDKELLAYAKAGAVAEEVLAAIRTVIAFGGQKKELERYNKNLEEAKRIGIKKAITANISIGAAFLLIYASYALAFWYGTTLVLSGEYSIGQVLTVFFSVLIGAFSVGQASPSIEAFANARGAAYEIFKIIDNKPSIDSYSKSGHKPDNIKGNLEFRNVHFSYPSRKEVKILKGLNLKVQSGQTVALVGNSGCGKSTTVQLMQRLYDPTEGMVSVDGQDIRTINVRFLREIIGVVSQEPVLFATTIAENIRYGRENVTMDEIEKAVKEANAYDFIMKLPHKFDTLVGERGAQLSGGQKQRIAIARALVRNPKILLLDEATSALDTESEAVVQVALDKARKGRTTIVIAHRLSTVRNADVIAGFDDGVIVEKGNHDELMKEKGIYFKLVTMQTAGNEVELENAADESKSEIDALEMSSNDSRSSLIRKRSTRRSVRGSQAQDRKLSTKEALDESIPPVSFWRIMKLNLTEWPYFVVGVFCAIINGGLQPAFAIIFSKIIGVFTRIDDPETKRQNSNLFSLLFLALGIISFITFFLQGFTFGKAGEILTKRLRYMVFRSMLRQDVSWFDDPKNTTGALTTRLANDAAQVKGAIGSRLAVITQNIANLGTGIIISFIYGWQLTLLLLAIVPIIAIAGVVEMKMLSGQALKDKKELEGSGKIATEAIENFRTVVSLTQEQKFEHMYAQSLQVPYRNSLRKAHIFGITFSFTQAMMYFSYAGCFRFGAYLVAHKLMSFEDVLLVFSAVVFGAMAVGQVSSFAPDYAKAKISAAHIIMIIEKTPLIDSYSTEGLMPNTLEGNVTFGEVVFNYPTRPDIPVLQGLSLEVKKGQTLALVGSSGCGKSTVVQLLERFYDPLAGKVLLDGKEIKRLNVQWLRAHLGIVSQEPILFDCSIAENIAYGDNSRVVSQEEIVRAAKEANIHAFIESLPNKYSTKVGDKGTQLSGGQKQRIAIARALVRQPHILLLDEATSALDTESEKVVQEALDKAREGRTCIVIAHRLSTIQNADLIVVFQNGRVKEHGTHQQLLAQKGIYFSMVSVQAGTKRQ

CCC(=O)C1(c2ccccc2)CCN(C)CC1
fold induction at 200 µM: 1.37

CCOC(=O)C1(c2cccc(O)c2)CCN(C)CC1 [BEMIDONE]
fold induction at 200 µM: 2.64

CCC(=O)C1(c2cccc(O)c2)CCN(C)CC1 [KETOBEMIDONE OXALATE]
fold induction at 200 µM: 4.89

CCOC(=O)C1(c2ccccc2)CCN(C)CC1 [PETHIDINE OXALATE]
fold induction at 200 µM: 1.78
